Assays:
[1] = acids (counterions) used in the salt screen of Compound 1; cited from earlier work
[2] = Behaviour of the isolated solid after air drying at ambient condition (hygroscopicity); assay type: physicochemical; settings: solid from slurry of free base, sulfuric acid and THF; air dried at ambient condition
Procedure: Using the amorphous free base from Example 1, 64 salt screen experiments were conducted using 16 acids in four solvent systems, plus four blank experiments in each respective solvent system. Slurry methods as disclosed herein were used to provide salt polymorphs of Compound 1. […] After magnetically stirring for four days at room temperature, any precipitation was isolated by centrifugation. If there was no precipitation after four days at room temperature, the clear solutions were transferred to stir at 5° C. to induce crystallization for 24 hours. If still no solids were observed, the final clear solution was subjected to slow evaporation at room temperature for four days. Any isolated solid was air dried at ambient condition before analysis.
[…]. As such, DSC/TGA data were not collected.

SMILES	pKa [1]	state of the solid after air drying (hygroscopicity) [2]
O=C(O)CC(O)C(=O)O (centres unmarked) [Malic acid]	3.16	
Cn1ncc(-c2ccc3c(=O)[nH]nc(CN)c3c2)c1-c1c(F)c(Cl)cc(OC2CC2)c1C#N.O=S(=O)(O)O [sulfate salt Form A, 2-(4-(4-(aminomethyl)-1-oxo-1,2-dihydrophthalazin-6-yl)-1-methyl-1H-pyrazol-5-yl)-4-chloro-6-cyclopropoxy-3-fluorobenzonitrile sulfate]		remained a wet paste, likely due to hygroscopicity
